This passage reports Kb results from patent US12187727B2, “Methods for antagonizing a melanocortin 4 receptor” (Pfizer Inc., priority 2020, dated 2025).

The first experiment deals with human Melanocortin-4 receptor (MC4R) (Homo sapiens (Human), UniProt P32245). The experiment can be described thus: Functional in vitro MC4R antagonist potency assay (cAMP HTRF in CHO cells). It counts as cell-based.
human Melanocortin-4 receptor (MC4R), sequence (P32245 whole entry): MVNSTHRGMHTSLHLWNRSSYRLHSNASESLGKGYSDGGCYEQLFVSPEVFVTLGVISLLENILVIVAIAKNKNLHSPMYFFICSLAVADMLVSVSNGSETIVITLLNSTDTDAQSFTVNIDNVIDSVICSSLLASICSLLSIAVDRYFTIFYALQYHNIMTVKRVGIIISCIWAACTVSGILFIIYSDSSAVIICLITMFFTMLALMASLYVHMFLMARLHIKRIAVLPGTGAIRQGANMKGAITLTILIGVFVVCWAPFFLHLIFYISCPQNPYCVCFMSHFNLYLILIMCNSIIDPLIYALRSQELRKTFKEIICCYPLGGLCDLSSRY
Conditions: not given
As to the method: Example BB. Functional In Vitro MC4R Antagonist Potency Assay
The functional in vitro antagonist potency for test compounds was determined by monitoring intracellular cyclic adenosine monophosphate (cAMP) levels in Chinese hamster ovary (CHO—) cells stably expressing the human Melanocortin-4 receptor (MC4R). Following agonist activation, human MC4R associates with the G-protein complex causing the Gα subunit to exchange bound GDP for GTP, followed by dissociation of the Ga-GTP complex. The activated Gα subunit can couple to downstream effectors to regulate the levels of second messengers or cAMP within the cell. Thereby, determination of intracellular cAMP levels allows for pharmacological characterization. Intracellular cAMP levels are quantitated using a homogenous assay utilizing the Homogeneous Time-Resolved Fluorescence (HTRF) technology from CisBio. The method is a competitive immunoassay between native cAMP produced by cells and the cAMP labelled with the acceptor dye, d2. The two entities then compete for binding to a monoclonal anti-cAMP antibody labeled with cryptate. The specific signal is inversely proportional to the concentration of cAMP in the cells.
Test compounds were solubilized to 30 mM in 100% dimethyl sulfoxide (DMSO) and stored. […] The final compound concentration range in the assay was 400 nM to […], with a final DMSO concentration of 0.1%.
(95% O2: 5% CO2) overnight, with micro-clime lids (Labcyte, Cat No. LLS-0310). […] Cells were incubated with compound for 30 minutes at 37° C. (95% O2: 5% CO2) before addition of 5 μL EC80, agonist stimulation (200 nM α-melanocyte stimulating hormone, aMSH, Bachem) and another 30-minute incubation at 37° C. (95% O2: 5% CO2). Intracellular cAMP levels were quantified as per Cisbio's protocol (5 uL of D2 and then 5 uL Cryptate, incubated for 1-2 hours at room temperature).
Data expressed as nM cAMP were then normalized to control wells using Activity Base (IDBS). Zero percent effect (ZPE) was defined as nM of cAMP generated from ECK, agonist stimulation (200 nM aMSH). In the absence of an antagonist control compound, one hundred percent effect (HPE) was defined as nM of cAMP generated from assay buffer/vehicle only.
Regarding `COc1cc([C@@H](C)C(=O)N2CC[C@@]3(CCc4cc(-c5nnn(C)n5)c(C)nc4N3)C2)c(F)cn1` [Example 13, (2R)-2-(5-Fluoro-2-methoxypyridin-4-yl)-1-[(2S)-7-methyl-6-(2-methyl-2H-tetrazol-5-yl)-3,4-dihydro-1H-spiro[1,8-naphthyridine-2,3′-pyrrolidin]-1′-yl]propan-1-one], the Kb is 0.16 nM.

Still in this experiment, the particulars now being: cAMP HTRF in CHO cells expressing human MC4R, 200 nM aMSH; Kb by Leff-Dougall equation; geometric mean; read-out: Kb (nM) Antagonist geometric.
In the case of `COc1cc([C@@H](C)C(=O)N2CC[C@@]3(CCc4cc(-c5nccc(C(F)F)n5)c(C)nc4N3)C2)c(F)cn1` [Example 200, (2R)-1-{(2S)-6-[4-(difluoromethyl)pyrimidin-2-yl]-7-methyl-3,4-dihydro-1H-spiro[1,8-naphthyridine-2,3′-pyrrolidin]-1′-yl}-2-(5-fluoro-2-methoxypyridin-4-yl)propan-1-one], the antagonist equilibrium constant (Kb) is 0.59 nM.

Staying with this experiment, now noted: human MC4R in CHO cells, cAMP HTRF, 200 nM aMSH challenge; Kb from IC50 by Leff-Dougall equation; geometric mean; read-out: Kb (nM) Antagonist geometric.
As to `COc1cc([C@@H](C)C(=O)N2CC[C@@]3(CCc4cc(-c5nccnc5C)c(C)nc4N3)C2)c(F)cn1` [Example 164, (2R)-2-(5-fluoro-2-methoxypyridin-4-yl)-1-[(2S)-7-methyl-6-(3-methylpyrazin-2-yl)-3,4-dihydro-1H-spiro[1,8-naphthyridine-2,3′-pyrrolidin]-1′-yl]propan-1-one], the Kb is > 57 nM.

With `COc1cc([C@@H](C)C(=O)N2CC[C@@]3(CCc4cc(-c5nc(C(F)F)n(C6CC6)n5)c(C)nc4N3)C2)c(F)cn1` [Example 189, (2R)-1-{(2S)-6-[1-cyclopropyl-5-(difluoromethyl)-1H-1,2,4-triazol-3-yl]-7-methyl-3,4-dihydro-1H-spiro[1,8-naphthyridine-2,3′-pyrrolidin]-1′-yl}-2-(5-fluoro-2-methoxypyridin-4-yl)propan-1-one], the Kb was found to be 4.3 nM. Regarding `COc1cc([C@@H](C)C(=O)N2CC[C@@]3(CCc4cc(-c5nc6ccccn6n5)c(C)nc4N3)C2)c(Cl)cn1` [Example 117, (2R)-2-(5-chloro-2-methoxypyridin-4-yl)-1-[(2S)-7-methyl-6-([1,2,4]triazolo[1,5-a]pyridin-2-yl)-3,4-dihydro-1H-spiro[1,8-naphthyridine-2,3′-pyrrolidin]-1′-yl]propan-1-one], the Kb was found to be 0.07 nM. Still for that read-out and setting: the same measure for `COc1cc([C@@H](C)C(=O)N2CC[C@@]3(CCc4cc(-c5cccc(OC(F)F)n5)c(C)nc4N3)C2)c(F)cn1` [Example 198, (2R)-1-{(2S)-6-[6-(difluoromethoxy)pyridin-2-yl]-7-methyl-3,4-dihydro-1H-spiro[1,8-naphthyridine-2,3′-pyrrolidin]-1′-yl}-2-(5-fluoro-2-methoxypyridin-4-yl)propan-1-one]: 8.3 nM; for `Cc1nc2c(cc1-c1nc(C(F)F)n(C)n1)CC[C@@]1(CCN(C(=O)Cc3ccc(F)c(F)c3)C1)N2` [Example 121, 1-{(2S)-6-[5-(difluoromethyl)-1-methyl-1H-1,2,4-triazol-3-yl]-7-methyl-3,4-dihydro-1H-spiro[1,8-naphthyridine-2,3′-pyrrolidin]-1′-yl}-2-(3,4-difluorophenyl)ethan-1-one]: 4 nM; for `COc1cc([C@@H](C)C(=O)N2CC[C@@]3(CCc4cc(-c5nc(C)n(C(F)F)n5)c(C)nc4N3)C2)c(F)cn1` [Example 188, (2R)-1-{(2S)-6-[1-(difluoromethyl)-5-methyl-1H-1,2,4-triazol-3-yl]-7-methyl-3,4-dihydro-1H-spiro[1,8-naphthyridine-2,3′-pyrrolidin]-1′-yl}-2-(5-fluoro-2-methoxypyridin-4-yl)propan-1-one]: 0.086 nM.

On to `COc1cc([C@@H](C)C(=O)N2CC[C@@]3(CCc4cc(-c5cn(C(F)F)c(C)n5)c(C)nc4N3)C2)c(F)cn1` [Example 138, (2R)-1-{(2S)-6-[1-(difluoromethyl)-2-methyl-1H-imidazol-4-yl]-7-methyl-3,4-dihydro-1H-spiro[1,8-naphthyridine-2,3′-pyrrolidin]-1′-yl}-2-(5-fluoro-2-methoxypyridin-4-yl)propan-1-one], for which the Kb turned out to be 0.44 nM. The same measure, in the same setting: the same measure for `COc1cc([C@@H](C)C(=O)N2CC[C@@]3(CCc4cc(-c5ccccn5)c(C)nc4N3)C2)c(F)cn1` [Example 140, (2R)-2-(5-fluoro-2-methoxypyridin-4-yl)-1-[(2S)-7-methyl-6-(pyridin-2-yl)-3,4-dihydro-1H-spiro[1,8-naphthyridine-2,3′-pyrrolidin]-1′-yl]propan-1-one]: 19 nM. Consider `COc1cc([C@@H](C)C(=O)N2CC[C@@]3(CCc4cc(-c5nc(C(F)F)n(C)n5)c(C)nc4N3)C2)c(Cl)cn1` [Example 120, (2R)-2-(5-chloro-2-methoxypyridin-4-yl)-1-{(2S)-6-[5-(difluoromethyl)-1-methyl-1H-1,2,4-triazol-3-yl]-7-methyl-3,4-dihydro-1H-spiro[1,8-naphthyridine-2,3′-pyrrolidin]-1′-yl}propan-1-one], for which the Kb amounted to 0.08 nM.

Turning to `COc1cc([C@@H](C)C(=O)N2CC[C@@]3(CCc4cc(-c5ncc(C(F)(F)F)cn5)c(C)nc4N3)C2)c(F)cn1` [Example 145, (2R)-2-(5-fluoro-2-methoxypyridin-4-yl)-1-{(2S)-7-methyl-6-[5-(trifluoromethyl)pyrimidin-2-yl]-3,4-dihydro-1H-spiro[1,8-naphthyridine-2,3′-pyrrolidin]-1′-yl}propan-1-one], the Kb was 54 nM.

Regarding `COc1cc([C@@H](C)C(=O)N2CCC3(CCc4cc(-c5nc(OC)n(C)n5)c(C)nc4N3)C2)c(F)cn1` (single isomer, unassigned) [Example 112], the Kb worked out at 2 nM. Consider `COc1cc([C@@H](C)C(=O)N2CC[C@@]3(CCc4cc(-c5cnn(C)n5)c(C)nc4N3)C2)c(Cl)cn1` [Example 119, (2R)-2-(5-chloro-2-methoxypyridin-4-yl)-1-[(2S)-7-methyl-6-(2-methyl-2H-1,2,3-triazol-4-yl)-3,4-dihydro-1H-spiro[1,8-naphthyridine-2,3′-pyrrolidin]-1′-yl]propan-1-one], for which the Kb was > 1.1 nM. Still for that read-out and setting: next, `COc1cc([C@@H](C)C(=O)N2CC[C@@]3(CCc4cc(-c5ncc(F)cn5)c(C)nc4N3)C2)c(F)cn1` [Example 146, (2R)-2-(5-fluoro-2-methoxypyridin-4-yl)-1-[(2S)-6-(5-fluoropyrimidin-2-yl)-7-methyl-3,4-dihydro-1H-spiro[1,8-naphthyridine-2,3′-pyrrolidin]-1′-yl]propan-1-one]: 1.2 nM; `Cc1nc2c(cc1-c1nnn(C)n1)CC[C@@]1(CCN(C(=O)[C@H](C)c3ccc(C(F)(F)F)cc3)C1)N2` (single isomer, unassigned) [Example 109]: 5.8 nM.

Staying with this experiment, now noted: read-out: Kb (nM) Antagonist geometric mean.
With `[2H]C([2H])([2H])Oc1cc([C@@H](C)C(=O)N2CC[C@@]3(CCc4cc(-c5ncccn5)c(C)nc4N3)C2)c(F)cn1` [Example 74, (2R)-2-{5-fluoro-2-[(^2H3)methyloxy]pyridin-4-yl}-1-[(2S)-7-methyl-6-(pyrimidin-2-yl)-3,4-dihydro-1H-spiro[1,8-naphthyridine-2,3′-pyrrolidin]-1′-yl]propan-1-one], the Kb worked out at 0.6 nM. Same read-out and setting: the same measure for `COc1ccc([C@@H](C)C(=O)N2CC[C@@]3(CCc4cc(-c5ncccn5)c(C)nc4N3)C2)cc1F` (single isomer, unassigned) [Example 42]: 9.4 nM; for `COc1cnc(-c2cc3c(nc2C)N[C@@]2(CC3)CCN(C(=O)[C@H](C)c3cc(OC)ncc3F)C2)nc1` [Example 67, (2R)-2-(5-fluoro-2-methoxypyridin-4-yl)-1-[(2S)-6-(5-methoxypyrimidin-2-yl)-7-methyl-3,4-dihydro-1H-spiro[1,8-naphthyridine-2,3′-pyrrolidin]-1′-yl]propan-1-one]: 14 nM. On the same count and under the same terms, next, `Cc1nc2c(cc1-c1cnn(C)c1)CC[C@@]1(CCN(C(=O)Cc3ccc(F)cc3)C1)N2` (stereo in doubt) [Example 89, 2-(4-fluorophenyl)-1-[7-methyl-6-(1-methyl-1H-pyrazol-4-yl)-3,4-dihydro-1H-spiro[1,8-naphthyridine-2,3′-pyrrolidin]-1′-yl]ethan-1-one]: > 40 nM. The same measure, in the same setting: next, `COc1cc([C@@H](C)C(=O)N2CC[C@@]3(CCc4ccc(C)nc4N3)C2)c(Cl)cn1` (single isomer, unassigned) [Example 100]: 5.5 nM; `COc1cc([C@@H](C)C(=O)N2CC[C@@]3(CCc4cc(-c5ncccn5)c(C)nc4N3)C2)cc(OC)n1` (single isomer, unassigned) [Example 83]: 0.54 nM. Consider `COc1cc([C@@H](C)C(=O)N2CC[C@@]3(CCc4cc(-c5nc(C(F)(F)F)n(C)n5)c(C)nc4N3)C2)c(Cl)cn1` (single isomer, unassigned) [Example 94], for which the Kb amounted to 0.12 nM.
